Experimental data published in patent publication US20200264182A1, “METHOD FOR DETECTING PROSTATE CANCER” (J-OIL MILLS, INC., priority 2017, published 2020).

Tests used:
[1] = FAC binding constant (Table 5 entry); settings: Table 5: sugar chain having no fucose; at 25° C.
Description: (§1) Details of the FAC method are described in Patent Document 2 filed by some of the present applicants, for example.
(§2) Binding constants (at 25° C.) of PhoSL, SRL, NSL and LSL belonging to the fucose α1→6 specific lectin for various sugar chains are shown in Tables 2 to 5.

FAC binding constant = settings: at 25° C.
Description: as §1, §2

[2] = sugar chain having fucose other than α1→6 fucose

Binding constant for sugar chain No. 728 [1]: <1000 M⁻¹ | Binding constant for sugar chain No. 728 (FAC binding constant; Table 3: sugar chain having fucose other than α1→6 fucose): <1000 M⁻¹ | Binding constant for sugar chain No. 419 (FAC binding constant; [2]): <1000 M⁻¹ | Binding constant for sugar chain No. 420 (FAC binding constant; [2]): <1000 M⁻¹ | Binding constant for sugar chain No. 718 (FAC binding constant; [2]): <1000 M⁻¹ | Binding constant for sugar chain No. 719 (FAC binding constant; [2]): <1000 M⁻¹ | Binding constant for sugar chain No. 720 (FAC binding constant; [2]): <1000 M⁻¹ | Binding constant for sugar chain No. 721 (FAC binding constant; [2]): <1000 M⁻¹ | Binding constant for sugar chain No. 722 (FAC binding constant; [2]): <1000 M⁻¹ | Binding constant for sugar chain No. 723 (FAC binding constant; [2]): <1000 M⁻¹ | Binding constant for sugar chain No. 726 (FAC binding constant; [2]): <1000 M⁻¹ | Binding constant for sugar chain No. 727 (FAC binding constant; [2]): <1000 M⁻¹ | Binding constant for sugar chain No. 729 (FAC binding constant; [2]): <1000 M⁻¹ | Binding constant for sugar chain No. 730 (FAC binding constant; [2]): <1000 M⁻¹ | Binding constant for sugar chain No. 731 (FAC binding constant; [2]): <1000 M⁻¹ | Binding constant for sugar chain No. 739 (FAC binding constant; [2]): <1000 M⁻¹ | Binding constant for sugar chain No. 909 (FAC binding constant; [2]): <1000 M⁻¹ | Binding constant for sugar chain No. 910 (FAC binding constant; [2]): <1000 M⁻¹ | Binding constant for sugar chain No. 931 (FAC binding constant; [2]): <1000 M⁻¹ | Binding constant for sugar chain No. 932 (FAC binding constant; [2]): <1000 M⁻¹ | Binding constant for sugar chain No. 933 (FAC binding constant; [2]): <1000 M⁻¹ | Binding constant for sugar chain No. 001 (FAC binding constant; sugar chain having no fucose): <1000 M⁻¹ | Binding constant for sugar chain No. 002 (FAC binding constant; sugar chain having no fucose): <1000 M⁻¹ | Binding constant for sugar chain No. 003 (FAC binding constant; sugar chain having no fucose): <1000 M⁻¹ | Binding constant for sugar chain No. 004 (FAC binding constant; sugar chain having no fucose): <1000 M⁻¹ | Binding constant for sugar chain No. 005 (FAC binding constant; sugar chain having no fucose): <1000 M⁻¹ | Binding constant for sugar chain No. 006 (FAC binding constant; sugar chain having no fucose): <1000 M⁻¹ | Binding constant for sugar chain No. 007 (FAC binding constant; sugar chain having no fucose): <1000 M⁻¹ | Binding constant for sugar chain No. 008 (FAC binding constant; sugar chain having no fucose): <1000 M⁻¹ | Binding constant for sugar chain No. 009 (FAC binding constant; sugar chain having no fucose): <1000 M⁻¹ | Binding constant for sugar chain No. 010 (FAC binding constant; sugar chain having no fucose): <1000 M⁻¹ | Binding constant for sugar chain No. 011 (FAC binding constant; sugar chain having no fucose): <1000 M⁻¹ | Binding constant for sugar chain No. 012 (FAC binding constant; sugar chain having no fucose): <1000 M⁻¹ | Binding constant for sugar chain No. 013 (FAC binding constant; sugar chain having no fucose): <1000 M⁻¹ | Binding constant for sugar chain No. 014 (FAC binding constant; sugar chain having no fucose): <1000 M⁻¹ | Binding constant for sugar chain No. 101 (FAC binding constant; sugar chain having no fucose): <1000 M⁻¹ | Binding constant for sugar chain No. 103 (FAC binding constant; sugar chain having no fucose): <1000 M⁻¹ | Binding constant for sugar chain No. 104 (FAC binding constant; sugar chain having no fucose): <1000 M⁻¹ | Binding constant for sugar chain No. 105 (FAC binding constant; sugar chain having no fucose): <1000 M⁻¹ | Binding constant for sugar chain No. 107 (FAC binding constant; sugar chain having no fucose): <1000 M⁻¹ | Binding constant for sugar chain No. 108 (FAC binding constant; sugar chain having no fucose): <1000 M⁻¹ | Binding constant for sugar chain No. 301 (FAC binding constant; sugar chain having no fucose): <1000 M⁻¹ | Binding constant for sugar chain No. 304 (FAC binding constant; sugar chain having no fucose): <1000 M⁻¹ | Binding constant for sugar chain No. 305 (FAC binding constant; sugar chain having no fucose): <1000 M⁻¹ | Binding constant for sugar chain No. 307 (FAC binding constant; sugar chain having no fucose): <1000 M⁻¹ | Binding constant for sugar chain No. 308 (FAC binding constant; sugar chain having no fucose): <1000 M⁻¹ | Binding constant for sugar chain No. 313 (FAC binding constant; sugar chain having no fucose): <1000 M⁻¹ | Binding constant for sugar chain No. 314 (FAC binding constant; sugar chain having no fucose): <1000 M⁻¹ | Binding constant for sugar chain No. 323 (FAC binding constant; sugar chain having no fucose): <1000 M⁻¹ | Binding constant for sugar chain No. 501 (FAC binding constant; sugar chain having no fucose): <1000 M⁻¹ | Binding constant for sugar chain No. 502 (FAC binding constant; sugar chain having no fucose): <1000 M⁻¹ | Binding constant for sugar chain No. 503 (FAC binding constant; sugar chain having no fucose): <1000 M⁻¹
Substance: SRL: fucose α1→6 specific lectin that can be extracted from Stropharia rugosoannulata, SEQ ID No. 2
